For 29 molecules, EC30 results are on record in US10758534B2 (Vertex Pharmaceuticals Incorporated, priority 2014, dated 2020).

Bounds are passed on as bounds.

Broadly, the EC30 is the point of the concentration-response curve where the effect stands at 30%.

In one experiment the target is T1, F508del (Homo sapiens, UniProt P13569, DEL508-508).
T1 construct: expressed in transfected cells
T1 sequence (P13569 with tags, fused parts or gaps DEL508-508): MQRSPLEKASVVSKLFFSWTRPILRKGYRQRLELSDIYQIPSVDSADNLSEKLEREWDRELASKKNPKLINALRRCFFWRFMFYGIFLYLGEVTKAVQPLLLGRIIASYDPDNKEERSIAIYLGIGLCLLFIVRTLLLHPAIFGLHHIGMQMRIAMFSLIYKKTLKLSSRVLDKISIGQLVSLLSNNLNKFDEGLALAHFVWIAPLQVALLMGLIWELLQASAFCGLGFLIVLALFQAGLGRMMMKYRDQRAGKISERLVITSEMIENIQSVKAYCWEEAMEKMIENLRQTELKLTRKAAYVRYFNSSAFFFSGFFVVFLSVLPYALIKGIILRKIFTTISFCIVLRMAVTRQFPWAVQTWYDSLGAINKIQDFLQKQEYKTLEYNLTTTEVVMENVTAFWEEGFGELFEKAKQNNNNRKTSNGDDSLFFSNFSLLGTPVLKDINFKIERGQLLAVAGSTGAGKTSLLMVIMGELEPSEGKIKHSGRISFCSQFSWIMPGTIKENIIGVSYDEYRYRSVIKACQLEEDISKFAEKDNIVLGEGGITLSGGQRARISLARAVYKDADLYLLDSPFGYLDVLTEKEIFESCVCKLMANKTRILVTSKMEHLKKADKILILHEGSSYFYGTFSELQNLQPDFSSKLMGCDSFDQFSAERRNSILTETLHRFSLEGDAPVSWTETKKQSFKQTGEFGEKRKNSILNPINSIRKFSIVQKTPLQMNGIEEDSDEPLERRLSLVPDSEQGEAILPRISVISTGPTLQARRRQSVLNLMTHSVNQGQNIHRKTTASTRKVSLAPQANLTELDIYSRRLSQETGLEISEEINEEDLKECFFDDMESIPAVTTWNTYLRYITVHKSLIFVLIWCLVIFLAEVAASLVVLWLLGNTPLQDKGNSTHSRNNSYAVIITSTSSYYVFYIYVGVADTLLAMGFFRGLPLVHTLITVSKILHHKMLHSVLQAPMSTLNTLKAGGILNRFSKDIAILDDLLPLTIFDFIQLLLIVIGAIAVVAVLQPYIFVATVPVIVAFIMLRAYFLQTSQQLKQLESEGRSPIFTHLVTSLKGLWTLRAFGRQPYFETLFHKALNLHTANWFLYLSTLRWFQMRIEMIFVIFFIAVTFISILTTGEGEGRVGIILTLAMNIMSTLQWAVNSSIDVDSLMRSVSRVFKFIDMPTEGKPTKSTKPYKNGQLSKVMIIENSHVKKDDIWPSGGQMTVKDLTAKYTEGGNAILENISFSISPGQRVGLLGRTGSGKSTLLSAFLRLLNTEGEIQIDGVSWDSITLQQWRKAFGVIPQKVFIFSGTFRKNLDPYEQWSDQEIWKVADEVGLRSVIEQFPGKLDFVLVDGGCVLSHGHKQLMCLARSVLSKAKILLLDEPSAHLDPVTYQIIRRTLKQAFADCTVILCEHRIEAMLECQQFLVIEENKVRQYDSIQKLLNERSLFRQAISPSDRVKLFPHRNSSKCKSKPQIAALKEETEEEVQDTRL
The experiment is described as follows: Protocol 2: FRET membrane potential optical assay (VIPR), identification of correction compounds. In kind it is cell-based. The settings on record: F508del CFTR modulator activity; compounds of Table 1; read-out: EC30. The essentials:
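NIH3T3 mouse fibroblasts stably expressing F508del were treated with test compound for 16 hrs at 37° C. in serum-free medium; 27° C. incubation served as positive control. F508del was activated with 10 μM forskolin plus 20 μM genistein in Cl^−-free medium, and Cl^− efflux-driven depolarization was read by DiSBAC2(3)/CC2-DMPE FRET.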
As to `COc1ccc2nc(N3C[C@@H](C)CC3(C)C)c(C(=O)NS(=O)(=O)c3cccc(N)n3)cc2c1` [Compound 2196, N-[(6-amino-2-pyridyl)sulfonyl]-6-methoxy-2-[(4S)-2,2,4-trimethylpyrrolidin-1-yl]quinoline-3-carboxamide], the EC30 is < 3 µM. In the case of `CC(C)c1ccccc1-c1ccc(C(=O)NS(=O)(=O)c2cccnc2N)c(N2C[C@@H](C)CC2(C)C)n1` [Compound 2172, N-[(2-amino-3-pyridyl)sulfonyl]-6-(2-isopropylphenyl)-2-[(4S)-2,2,4-trimethylpyrrolidin-1-yl]pyridine-3-carboxamide], the EC30 is < 3 µM. For the molecule `CC1CN(c2ncccc2C(=O)NS(=O)(=O)c2cccc(OCc3cccs3)n2)C(C)(C)C1` (centres unmarked) [Compound 2181, N—[[6-(2-thienylmethoxy)-2-pyridyl]sulfonyl]-2-(2,2,4-trimethylpyrrolidin-1-yl)pyridine-3-carboxamide], the EC30 is < 3 µM. In the case of `CCOc1cc(-c2ccc(C(=O)NS(=O)(=O)c3cccnc3N)c(N3C[C@@H](C)CC3(C)C)n2)ccc1F` [Compound 2665, N-[(2-amino-3-pyridyl)sulfonyl]-6-(3-ethoxy-4-fluoro-phenyl)-2-[(4S)-2,2,4-trimethylpyrrolidin-1-yl]pyridine-3-carboxamide], the EC30 was < 3 µM. For the molecule `Cc1cc(C)cc(-c2ccc(C(=O)NS(=O)(=O)c3ccc[nH]c3=O)c(N3C[C@@H](C)CC3(C)C)n2)c1` [Compound 2626, 6-(3,5-dimethylphenyl)-N-[(2-oxo-1H-pyridin-3-yl)sulfonyl]-2-[(4S)-2,2,4-trimethylpyrrolidin-1-yl]pyridine-3-carboxamide], the EC30 is < 3 µM. Regarding `CC(C)OC(=O)N1CC=C(c2cc(C(=O)NS(=O)(=O)c3cccc(N)n3)c(N3C[C@@H](C)CC3(C)C)nc2C(C)(C)C)CC1` [Compound 2027, isopropyl 4-[5-[(6-amino-2-pyridyl)sulfonylcarbamoyl]-2-tert-butyl-6-[(4S)-2,2,4-trimethylpyrrolidin-1-yl]-3-pyridyl]-3,6-dihydro-2H-pyridine-1-carboxylate], the EC30 was < 3 µM. As to `Cc1ccc(-c2ccc(C(=O)NS(=O)(=O)c3cccnc3N)c(N3C[C@@H](C)CC3(C)C)n2)cc1F` [Compound 2345, N-[(2-amino-3-pyridyl)sulfonyl]-6-(3-fluoro-4-methyl-phenyl)-2-[(4S)-2,2,4-trimethylpyrrolidin-1-yl]pyridine-3-carboxamide], the EC30 was < 3 µM.

On to `COc1ccc(COc2cccc(S(=O)(=O)NC(=O)c3cccnc3N3CC(C)CC3(C)C)n2)cc1` (centres unmarked) [Compound 2428, N—[[6-[(4-methoxyphenyl)methoxy]-2-pyridyl]sulfonyl]-2-(2,2,4-trimethylpyrrolidin-1-yl)pyridine-3-carboxamide], for which the EC30 was < 3 µM. In the case of `COc1ccc(CNc2cccc(S(=O)(=O)NC(=O)c3cccnc3N3CC(C)CC3(C)C)n2)cc1` (centres unmarked) [Compound 2579, N—[[6-[(4-methoxyphenyl)methylamino]-2-pyridyl]sulfonyl]-2-(2,2,4-trimethylpyrrolidin-1-yl)pyridine-3-carboxamide], the EC30 was < 3 µM. The same measure, in the same setting: to `COc1ccc(CCNc2cccc(S(=O)(=O)NC(=O)c3cccnc3N3CC(C)CC3(C)C)n2)cc1` (centres unmarked) [Compound 2072, N—[[6-[2-(4-methoxyphenyl)ethylamino]-2-pyridyl]sulfonyl]-2-(2,2,4-trimethylpyrrolidin-1-yl)pyridine-3-carboxamide] belongs 3 to 10 µM; to `COc1c(F)cc(F)cc1-c1ccc(C(=O)NS(=O)(=O)c2ccc[nH]c2=O)c(N2C[C@@H](C)CC2(C)C)n1` [Compound 2496, 6-(3,5-difluoro-2-methoxy-phenyl)-N-[(2-oxo-1H-pyridin-3-yl)sulfonyl]-2-[(4S)-2,2,4-trimethylpyrrolidin-1-yl]pyridine-3-carboxamide], < 3 µM; to `CC(C)COc1cc(F)cc(-c2ccc(C(=O)NS(=O)(=O)C3CCCC3)c(N3C[C@@H](C)CC3(C)C)n2)c1` [Compound 2113, N-cyclopentylsulfonyl-6-(3-fluoro-5-isobutoxy-phenyl)-2-[(4S)-2,2,4-trimethylpyrrolidin-1-yl]pyridine-3-carboxamide], < 3 µM. On the same count and under the same terms, with `CC1CN(c2ncccc2C(=O)NS(=O)(=O)c2cccc(Nc3ccc(NC(=O)OC(C)(C)C)cc3)n2)C(C)(C)C1` (centres unmarked) [Compound 2743] the figure was < 3 µM.

For `CC(C)(C)c1ccc(C(=O)NS(=O)(=O)c2cccc(N)n2)c(N2CCC(CC3CC3)C2(C)C)n1` (centres unmarked) [Compound 2242, N-[(6-amino-2-pyridyl)sulfonyl]-6-tert-butyl-2-[3-(cyclopropylmethyl)-2,2-dimethyl-pyrrolidin-1-yl]pyridine-3-carboxamide], the EC30 was < 3 µM.

The same experiment, now with this note: Table 3; compounds of Table 1 as modulators of CFTR activity; protocol not stated.
For `CC(C)COc1cc(F)cc(-c2ccc(C(=O)NS(=O)(=O)c3ccc[nH]c3=O)c(N3C[C@H](C)CC3(C)C)n2)c1` [Compound 605, 6-(3-fluoro-5-isobutoxy-phenyl)-N-[(2-oxo-1H-pyridin-3-yl)sulfonyl]-2-[(4R)-2,2,4-trimethylpyrrolidin-1-yl]pyridine-3-carboxamide], the EC30 result is “+++ (“+++” means <3 uM)”.

As to `CC(C)Oc1ccc(-c2ccc(C(=O)NS(=O)(=O)c3cccc(N)n3)c(NC(C)c3ccccc3)n2)cn1` (centres unmarked) [Compound 766, N-[(6-amino-2-pyridyl)sulfonyl]-6-(6-isopropoxy-3-pyridyl)-2-(1-phenylethylamino)pyridine-3-carboxamide], the EC30 result was “++ (“++” means between 3 uM and 10 uM)”.

`CC(C)CCOc1cc(F)cc(-c2ccc(C(=O)NS(=O)(=O)c3ccc[nH]c3=O)c(N3[C@H](C)CC[C@@H]3C)n2)c1` [Compound 688, 2-[(2S,5R)-2,5-dimethylpyrrolidin-1-yl]-6-(3-fluoro-5-isopentyloxy-phenyl)-N-[(2-oxo-1H-pyridin-3-yl)sulfonyl]pyridine-3-carboxamide]: the EC30 entry is “+++ (“+++” means <3 uM)”. `Cc1cc(C)c(Oc2nc(-c3cnc(C(C)C)nc3)ccc2C(=O)NS(=O)(=O)c2cccc(N)n2)c(C)c1` [Compound 64, N-[(6-amino-2-pyridyl)sulfonyl]-6-(2-isopropylpyrimidin-5-yl)-2-(2,4,6-trimethylphenoxy)pyridine-3-carboxamide]: the EC30 entry was “++ (“++” means between 3 uM and 10 uM)”. With `CC(C)(C)c1ccc(C(=O)NS(=O)(=O)c2cccc(N)c2)c(Oc2ccccc2)n1` [Compound 272, N-(3-aminophenyl)sulfonyl-6-tert-butyl-2-phenoxy-pyridine-3-carboxamide], the EC30 result was “++ (“++” means between 3 uM and 10 uM)”. For the molecule `CCC1(COc2nc(-c3cc(F)cc(OCC(C)C)c3)ccc2C(=O)NS(=O)(=O)c2cccc(N)n2)COC1` [Compound 618, N-[(6-amino-2-pyridyl)sulfonyl]-2-[(3-ethyloxetane-3-yl)methoxy]-6-(3-fluoro-5-isobutoxy-phenyl)pyridine-3-carboxamide], the EC30 result is “++ (“++” means between 3 uM and 10 uM)”. Turning to `Cc1cc(C)c(CN2Cc3cccc(C)c3CC2C(=O)NS(=O)(=O)c2cccc(N)n2)c(C)c1` (centres unmarked) [Compound 95, N-[(6-amino-2-pyridyl)sulfonyl]-5-methyl-2-[(2,4,6-trimethylphenyl)methyl]-3,4-dihydro-H-isoquinoline-3-carboxamide], the EC30 result was “+++ (“+++” means <3 uM)”. As to `CC(C)(C)c1cc(C(=O)NS(=O)(=O)c2cccc(N)c2)n(Cc2cccc3ccccc23)n1` [Compound 295, N-(3-aminophenyl)sulfonyl-5-tert-butyl-2-(1-naphthylmethyl)pyrazole-3-carboxamide], the EC30 result is “++ (“++” means between 3 uM and 10 uM)”. On to `CC(C)Oc1ccc(-c2ccc(C(=O)NS(=O)(=O)c3cccc(N)n3)c(N3CCC4(CCC4)CC3)n2)cn1` [Compound 733, N-[(6-amino-2-pyridyl)sulfonyl]-2-(7-azaspiro[3.5]nonan-7-yl)-6-(6-isopropoxy-3-pyridyl)pyridine-3-carboxamide], for which the EC30 entry is “+++ (“+++” means <3 uM)”. Take `CC(C)Oc1ccc(-c2ccc(C(=O)NS(=O)(=O)c3cccc(N)n3)c(N3CCCCC3c3ccccc3)n2)cn1` (centres unmarked) [Compound 731, N-[(6-amino-2-pyridyl)sulfonyl]-6-(6-isopropoxy-3-pyridyl)-2-(2-phenyl-1-piperidyl)pyridine-3-carboxamide]: the EC30 result was “+++ (“+++” means <3 uM)”.

As to `CC1CN(c2nc(-c3cncc(OCC(C)(C)C)n3)ccc2C(=O)NS(=O)(=O)c2cccc(N)n2)C(C)(C)C1` (centres unmarked) [Compound 779, N-[(6-amino-2-pyridyl)sulfonyl]-6-[6-(2,2-dimethylpropoxy)pyrazin-2-yl]-2-(2,2,4-trimethylpyrrolidin-1-yl)pyridine-3-carboxamide], the EC30 entry was “+++ (“+++” means <3 uM)”. On to `Cc1cc(C)c(Cn2c(C(=O)NS(=O)(=O)c3cccc(N)c3)cc3c(C)cccc32)c(C)c1` [Compound 144, N-(3-aminophenyl)sulfonyl-4-methyl-1-[(2,4,6-trimethylphenyl)methyl]indole-2-carboxamide], for which the EC30 entry is recorded as “+++ (“+++” means <3 uM)”. With `CC(C)Oc1ccc(-c2ccc(C(=O)NS(=O)(=O)c3cccc(N)n3)c(N3CCC4CCCC43)n2)cn1` (centres unmarked) [Compound 732, 2-(3,3a,4,5,6,6a-hexahydro-2H-cyclopenta[b]pyrrol-1-yl)-N-[(6-amino-2-pyridyl)sulfonyl]-6-(6-isopropoxy-3-pyridyl)pyridine-3-carboxamide], the EC30 entry is listed as “+++ (“+++” means <3 uM)”.

For the molecule `Cc1ccc(-c2ccc(C(=O)NS(=O)(=O)c3cc[nH]n3)c(Oc3c(C)cc(C)cc3C)n2)cc1` [Compound 300, 6-(p-tolyl)-N-(1H-pyrazol-3-ylsulfonyl)-2-(2,4,6-trimethylphenoxy)pyridine-3-carboxamide], the EC30 entry is “+++ (“+++” means <3 uM)”. With `C[C@@H]1CC[C@H](C)N1c1nc(C2CCCCC2)ccc1C(=O)NS(=O)(=O)c1cccc(N)n1` [Compound 704, N-[(6-amino-2-pyridyl)sulfonyl]-6-cyclohexyl-2-[(2S,5R)-2,5-dimethylpyrrolidin-1-yl]pyridine-3-carboxamide], the EC30 result is “++ (“++” means between 3 uM and 10 uM)”.
